Assay results published in patent US20240158412A1 (Faxian Therapeutics, LLC, priority 2021, published 2024).

Target: USP7 (Homo sapiens, UniProt Q93009)
Test: biochemical
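Note: fluorescence intensity readout of USP7 enzymatic activity, reaction incubated 90 min at room temperature.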

USP7, sequence (Q93009 whole entry): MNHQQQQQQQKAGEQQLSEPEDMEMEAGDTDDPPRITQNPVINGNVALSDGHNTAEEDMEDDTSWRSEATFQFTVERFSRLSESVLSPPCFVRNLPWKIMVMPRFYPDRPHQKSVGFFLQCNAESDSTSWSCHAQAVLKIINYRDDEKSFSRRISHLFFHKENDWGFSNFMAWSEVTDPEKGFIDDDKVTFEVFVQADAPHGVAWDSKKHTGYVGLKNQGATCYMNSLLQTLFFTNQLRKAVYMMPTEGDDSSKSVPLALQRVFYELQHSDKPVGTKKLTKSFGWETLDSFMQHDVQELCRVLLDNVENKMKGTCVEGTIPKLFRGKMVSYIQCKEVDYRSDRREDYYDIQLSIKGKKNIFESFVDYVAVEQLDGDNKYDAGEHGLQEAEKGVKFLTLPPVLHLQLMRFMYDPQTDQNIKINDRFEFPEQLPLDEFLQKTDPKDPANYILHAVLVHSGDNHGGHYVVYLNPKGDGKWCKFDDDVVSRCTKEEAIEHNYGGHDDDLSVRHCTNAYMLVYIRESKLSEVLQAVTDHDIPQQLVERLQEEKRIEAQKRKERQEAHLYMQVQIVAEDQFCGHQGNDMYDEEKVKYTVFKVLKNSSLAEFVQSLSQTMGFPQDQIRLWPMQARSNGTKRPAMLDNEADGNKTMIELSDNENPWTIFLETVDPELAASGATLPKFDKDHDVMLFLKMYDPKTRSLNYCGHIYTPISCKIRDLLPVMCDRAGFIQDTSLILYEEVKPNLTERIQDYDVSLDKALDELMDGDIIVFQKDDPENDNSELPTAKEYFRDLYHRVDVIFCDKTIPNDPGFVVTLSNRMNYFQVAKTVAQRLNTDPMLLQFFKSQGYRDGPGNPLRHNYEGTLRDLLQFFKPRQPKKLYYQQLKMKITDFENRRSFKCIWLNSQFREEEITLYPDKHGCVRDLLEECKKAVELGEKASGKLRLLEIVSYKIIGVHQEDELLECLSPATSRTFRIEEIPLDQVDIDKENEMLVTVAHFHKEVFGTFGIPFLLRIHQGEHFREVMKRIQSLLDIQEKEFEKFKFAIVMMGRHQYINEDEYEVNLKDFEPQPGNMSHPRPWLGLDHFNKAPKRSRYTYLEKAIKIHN

Structure (SMILES) | IC50 [nM]
CN1C(=O)N(Cc2cc3nccc(-c4cc(Cl)cc5c4N(C4CNC4)CCC5)c3s2)C(=O)C12CCC2 [Example 31, 7-((7-(1-(azetidin-3-yl)-6-chloro-1,2,3,4-tetrahydroquinolin-8-yl)thieno[3,2-b]pyridin-2-yl)methyl)-5-methyl-5,7-diazaspiro[3.4]octane-6,8-dione] | 101 to 1000
O=c1cc(Oc2ccc(F)cc2)cnn1Cc1cc2nccc(-c3cc(Cl)cc4c3N(C3CNC3)CCC4)c2s1 [Example 36, 2-((7-(1-(azetidin-3-yl)-6-chloro-1,2,3,4-tetrahydroquinolin-8-yl)thieno[3,2-b]pyridin-2-yl)methyl)-5-(4-fluorophenoxy)pyridazin-3(2H)-one] | 10 to 100
Oc1ccnn1Cc1cc2nccc(-c3cc(Cl)cc4c3N(C3CNC3)CCC4)c2s1 [Example 37, 2-[[7-[1-(azetidin-3-yl)-6-chloro-3,4-dihydro-2H-quinolin-8-yl]thieno[3,2-b]pyridin-2-yl]methyl]pyrazol-3-ol] | > 1000
O=C(c1cc2nccc(-c3cc(Cl)cc4c3N(C3CNC3)CCC4)c2s1)N1CCC1 [Example 38, Azetidin-1-yl-[7-[1-(azetidin-3-yl)-6-chloro-3,4-dihydro-2H-quinolin-8-yl]thieno[3,2-b]pyridin-2-yl]methanone] | > 1000
O=C1CCC(=O)N1Cc1cc2nccc(-c3cc(C(F)(F)F)cc4c3N(C3CNC3)CCC4)c2s1 [Example 39] | 10 to 100
O=C1CCC(=O)N1Cc1cc2nccc(-c3cc(Cl)cc4c3N([C@H]3C[C@@H](O)C3)CCC4)c2s1 [Example 41, Cis-1-[[7-[6-chloro-1-(3-hydroxycyclobutyl)-3,4-dihydro-2H-quinolin-8-yl]thieno[3,2-b]pyridin-2-yl]methyl]pyrrolidine-2,5-dione] | > 1000
O=C1CCC(=O)N1Cc1cc2nccc(-c3cc(Cl)cc4c3N(C3CCNCC3)CCC4)c2s1 [Example 45, 1-((7-(6-chloro-1-(piperidin-4-yl)-1,2,3,4-tetrahydroquinolin-8-yl)thieno[3,2-b]pyridin-2-yl)methyl)pyrrolidine-2,5-dione] | 10 to 100
CN1CCC(N2CCCc3cc(Cl)cc(-c4ccnc5cc(CN6C(=O)CCC6=O)sc45)c32)CC1 [Example 46, 1-[[7-[6-chloro-1-(1-methyl-4-piperidyl)-3,4-dihydro-2H-quinolin-8-yl]thieno[3,2-b]pyridin-2-yl]methyl]pyrrolidine-2,5-dione] | 10 to 100
O=C1CCC(=O)N1Cc1cc2nccc(-c3cc(Cl)cc4c3N(C3CNC3)CCC43CC3)c2s1 [Example 48, 1-((7-(1′-(azetidin-3-yl)-6′-chloro-2′,3′-dihydro-1′H-spiro[cyclopropane-1,4′-quinolin]-8′-yl)thieno[3,2-b]pyridin-2-yl)methyl)pyrrolidine-2,5-dione] | 10 to 100
O=C1CCC(=O)N1Cc1cc2nccc(-c3cc(Cl)cc4c3N(CC3CCNCC3)CCC4)c2s1 [Example 49, 1-[[7-[6-chloro-1-(4-piperidylmethyl)-3,4-dihydro-2H-quinolin-8-yl]thieno[3,2-b]pyridin-2-yl]methyl]pyrrolidine-2,5-dione] | 101 to 1000
CN1CCC(CN2CCCc3cc(Cl)cc(-c4ccnc5cc(CN6C(=O)CCC6=O)sc45)c32)CC1 [Example 50, 1-[[7-[6-chloro-1-[(1-methyl-4-piperidyl)methyl]-3,4-dihydro-2H-quinolin-8-yl]thieno[3,2-b]pyridin-2-yl]methyl]pyrrolidine-2,5-dione] | 10 to 100
O=C1CCC(=O)N1Cc1cc2nccc(-c3cc(Cl)cc4c3N(C3CNC3)C(=O)CO4)c2s1 [Example 53, 1-[[7-[4-(azetidin-3-yl)-7-chloro-3-oxo-1,4-benzoxazin-5-yl]thieno[3,2-b]pyridin-2-yl]methyl]pyrrolidine-2,5-dione] | 10 to 100
O=C1CCC(=O)N1Cc1cc2nccc(-c3cc(Cl)cc4c3N(C3CNC3)CCO4)c2s1 [Example 54, 1-[[7-[4-(azetidin-3-yl)-7-chloro-2,3-dihydro-1,4-benzoxazin-5-yl]thieno[3,2-b]pyridin-2-yl]methyl]pyrrolidine-2,5-dione] | 10 to 100
O=C1CCC(=O)N1Cc1cc2nccc(-c3cc(Cl)cc4c3N([C@@H]3CCNC3)CCC4)c2s1 [Example 58, (R)-1-((7-(6-chloro-1-(pyrrolidin-3-yl)-1,2,3,4-tetrahydroquinolin-8-yl)thieno[3,2-b]pyridin-2-yl)methyl)pyrrolidine-2,5-dione] | 10 to 100

Results, then the compound that gave them:

IC50 [nM] | Structure (SMILES)
< 10 | O=c1ccn(CC(F)(F)F)c(=O)n1Cc1cc2nccc(-c3cc(Cl)cc4c3N(C3CNC3)CCC4)c2s1 [Example 24, 3-[[7-[1-(azetidin-3-yl)-6-chloro-3,4-dihydro-2H-quinolin-8-yl]thieno[3,2-b]pyridin-2-yl]methyl]-1-(2,2,2-trifluoroethyl)pyrimidine-2,4-dione]
10 to 100 | O=C1COC(=O)N1Cc1cc2nccc(-c3cc(Cl)cc4c3N(C3CNC3)CCC4)c2s1 [Example 27, 3-[[7-[1-(azetidin-3-yl)-6-chloro-3,4-dihydro-2H-quinolin-8-yl]thieno[3,2-b]pyridin-2-yl]methyl]oxazolidine-2,4-dione]
< 10 | O=C1CNCC(=O)N1Cc1cc2nccc(-c3cc(Cl)cc4c3N(C3CNC3)CCC4)c2s1 [Example 28, 1-[[7-[1-(azetidin-3-yl)-6-chloro-3,4-dihydro-2H-quinolin-8-yl]thieno[3,2-b]pyridin-2-yl]methyl]piperazine-2,6-dione]
10 to 100 | CC1(CN2CC(=O)N(Cc3cc4nccc(-c5cc(Cl)cc6c5N(C5CNC5)CCC6)c4s3)C(=O)C2)CC1 [Example 29, 1-((7-(1-(azetidin-3-yl)-6-chloro-1,2,3,4-tetrahydroquinolin-8-yl)thieno[3,2-b]pyridin-2-yl)methyl)-4-((1-methylcyclopropyl)methyl)piperazine-2,6-dione]
< 10 | COCCn1ccc(=O)n(Cc2cc3nccc(-c4cc(Cl)cc5c4N(C4CNC4)CCC5)c3s2)c1=O [Example 30, 3-[[7-[1-(azetidin-3-yl)-6-chloro-3,4-dihydro-2H-quinolin-8-yl]thieno[3,2-b]pyridin-2-yl]methyl]-1-(2-methoxyethyl)pyrimidine-2,4-dione]
10 to 100 | N#Cc1cc2c(c(-c3ccnc4cc(CN5C(=O)CCC5=O)sc34)c1)N(C1CNC1)CCC2 [Example 32, 1-(azetidin-3-yl)-8-[2-[(2,5-dioxopyrrolidin-1-yl)methyl]thieno[3,2-b]pyridin-7-yl]-3,4-dihydro-2H-quinoline-6-carbonitrile]
10 to 100 | Cc1cc2c(c(-c3ccnc4cc(CN5C(=O)CCC5=O)sc34)c1)N(C1CNC1)CCC2 [Example 33, 1-[[7-[1-(azetidin-3-yl)-6-methyl-3,4-dihydro-2H-quinolin-8-yl]thieno[3,2-b]pyridin-2-yl]methyl]pyrrolidine-2,5-dione]
10 to 100 | O=c1cc(N2CCOCC2)cnn1Cc1cc2nccc(-c3cc(Cl)cc4c3N(C3CNC3)CCC4)c2s1 [Example 34]
10 to 100 | O=c1cc(NC2CCC2)cnn1Cc1cc2nccc(-c3cc(Cl)cc4c3N(C3CNC3)CCC4)c2s1 [Example 35, 2-[[7-[1-(azetidin-3-yl)-6-chloro-3,4-dihydro-2H-quinolin-8-yl]thieno[3,2-b]pyridin-2-yl]methyl]-5-(cyclobutylamino)pyridazin-3-one]
< 10 | O=c1ccn(CC(F)(F)F)c(=O)n1Cc1cc2nccc(-c3cc(Cl)cc4c3N([C@H]3CCNC3)CCC4)c2s1 [Example 55, (S)-3-((7-(6-chloro-1-(pyrrolidin-3-yl)-1,2,3,4-tetrahydroquinolin-8-yl)thieno[3,2-b]pyridin-2-yl)methyl)-1-(2,2,2-trifluoroethyl)pyrimidine-2,4(1H,3H)-dione]
< 10 | O=c1ccn(CC(F)(F)F)c(=O)n1Cc1cc2nccc(-c3cc(Cl)cc4c3N([C@@H]3CCNC3)CCC4)c2s1 [Example 56, (R)-3-((7-(6-chloro-1-(pyrrolidin-3-yl)-1,2,3,4-tetrahydroquinolin-8-yl)thieno[3,2-b]pyridin-2-yl)methyl)-1-(2,2,2-trifluoroethyl)pyrimidine-2,4(1H,3H)-dione]
< 10 | O=C1CCC(=O)N1Cc1cc2nccc(-c3cc(Cl)cc4c3N([C@H]3CCNC3)CCC4)c2s1 [Example 57, (S)-1-((7-(6-chloro-1-(pyrrolidin-3-yl)-1,2,3,4-tetrahydroquinolin-8-yl)thieno[3,2-b]pyridin-2-yl)methyl)pyrrolidine-2,5-dione]
< 10 | CN1CC[C@H](N2CCCc3cc(Cl)cc(-c4ccnc5cc(CN6C(=O)CCC6=O)sc45)c32)C1 [Example 59, (S)-1-((7-(6-chloro-1-(1-methylpyrrolidin-3-yl)-1,2,3,4-tetrahydroquinolin-8-yl)thieno[3,2-b]pyridin-2-yl)methyl)pyrrolidine-2,5-dione]
< 10 | CN1CC[C@@H](N2CCCc3cc(Cl)cc(-c4ccnc5cc(CN6C(=O)CCC6=O)sc45)c32)C1 [Example 60, (R)-1-((7-(6-chloro-1-(1-methylpyrrolidin-3-yl)-1,2,3,4-tetrahydroquinolin-8-yl)thieno[3,2-b]pyridin-2-yl)methyl)pyrrolidine-2,5-dione]
< 10 | O=c1ccn(CCOC(F)F)c(=O)n1Cc1cc2nccc(-c3cc(Cl)cc4c3N([C@H]3CCNC3)CCC4)c2s1 [Example 61, (S)-3-((7-(6-chloro-1-(pyrrolidin-3-yl)-1,2,3,4-tetrahydroquinolin-8-yl)thieno[3,2-b]pyridin-2-yl)methyl)-1-(2-(difluoromethoxy)ethyl)pyrimidine-2,4(1H,3H)-dione]
< 10 | O=c1ccn(CC2CC2)c(=O)n1Cc1cc2nccc(-c3cc(Cl)cc4c3N([C@H]3CCNC3)CCC4)c2s1 [Example 62, (S)-3-((7-(6-chloro-1-(pyrrolidin-3-yl)-1,2,3,4-tetrahydroquinolin-8-yl)thieno[3,2-b]pyridin-2-yl)methyl)-1-(cyclopropylmethyl)pyrimidine-2,4(1H,3H)-dione]
< 10 | Cn1ccc(=O)n(Cc2cc3nccc(-c4cc(Cl)cc5c4N([C@H]4CCNC4)CCC5)c3s2)c1=O [Example 63, (S)-3-((7-(6-chloro-1-(pyrrolidin-3-yl)-1,2,3,4-tetrahydroquinolin-8-yl)thieno[3,2-b]pyridin-2-yl)methyl)-1-methylpyrimidine-2,4(1H,3H)-dione]
< 10 | O=c1ccn(C[C@H](O)C(F)(F)F)c(=O)n1Cc1cc2nccc(-c3cc(Cl)cc4c3N([C@H]3CCNC3)CCC4)c2s1 [Example 64]
